Article PMC12521527, “In vivo self-assembled nano-PROTAC for the dual degradation of AR and HSP90 to overcome castration-resistant prostate cancer resistance” (Signal Transduction and Targeted Therapy, 2025)
Numbered stars: 1 amine (or outer) side, 2 acyl side, 3 side chain; on linkers, the order of the positions; unused ones are H or OH. Square brackets hold non-standard residues; d marks the D form. Peptide text beside a SMILES is read from it. * marks the point of attachment. X2 = CC1(C)C(=O)N(c2ccc(C#N)c(C(F)(F)F)c2)C(=S)N1c1ccc(C(=O)*)c(F)c1; X1 = O=C1CCC(N2C(=O)c3cccc(N(CC(=O)[*:2])[*:1])c3C2=O)C(=O)N1; EuK = O=C(O)CC[C@H](NC(=O)N[C@@H](CCCCN*)C(=O)O)C(=O)O; 2Nal = N[C@@H](Cc1ccc2ccccc2c1)C(=O)O

How the values were obtained:
PSMA protein = PSMA protein (Homo sapiens, UniProt Q04609); test: MST binding affinity, Psa-AR and PSMA protein; conditions: RED-NHS-labeled PSMA 400 nM, PBS-T (0.05% Tween 20), 22 °C, n = 3, read-out: Kd, binding affinity between Psa-AR and PSMA
PSMA protein, sequence (Q04609 whole entry): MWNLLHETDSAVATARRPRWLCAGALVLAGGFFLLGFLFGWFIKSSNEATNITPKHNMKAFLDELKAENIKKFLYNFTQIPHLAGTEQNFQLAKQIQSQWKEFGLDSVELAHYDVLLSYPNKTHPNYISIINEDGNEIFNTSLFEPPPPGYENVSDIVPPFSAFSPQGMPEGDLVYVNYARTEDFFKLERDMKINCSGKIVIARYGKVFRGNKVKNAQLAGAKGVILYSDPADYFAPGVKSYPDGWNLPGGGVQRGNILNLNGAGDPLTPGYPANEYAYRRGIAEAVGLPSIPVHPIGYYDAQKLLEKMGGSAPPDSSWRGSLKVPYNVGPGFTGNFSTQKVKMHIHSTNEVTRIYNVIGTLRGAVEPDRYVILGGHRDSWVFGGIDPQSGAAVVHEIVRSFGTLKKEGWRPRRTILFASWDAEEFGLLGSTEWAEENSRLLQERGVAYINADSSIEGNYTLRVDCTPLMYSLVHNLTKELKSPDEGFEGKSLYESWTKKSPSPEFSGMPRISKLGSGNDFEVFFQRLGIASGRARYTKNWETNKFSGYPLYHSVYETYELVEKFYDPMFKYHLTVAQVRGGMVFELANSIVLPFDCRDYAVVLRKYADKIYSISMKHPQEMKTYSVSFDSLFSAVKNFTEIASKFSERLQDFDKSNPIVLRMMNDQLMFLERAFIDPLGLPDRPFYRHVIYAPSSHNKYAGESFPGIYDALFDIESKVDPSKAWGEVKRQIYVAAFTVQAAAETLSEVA
Experimental: Fig. 1 Protein-induced self-assembly behaviors of Psa-AR in vitro. a Six tissue samples from patients with prostate tumors (1–6) and six from patients with normal prostates (1’–6’) were obtained clinically. The expression of CRBN in these samples was analyzed by immunohistochemistry (IHC).
MST (NanoTemper Technologies GmbH, Munich, Germany) was utilized to evaluate the binding affinity between Psa-AR and RED-NHS-labeled PSMA, AR, or CRBN proteins. The PSMA, AR, and CRBN proteins were labeled with the Protein Labeling Kit RED-NHS 2nd Generation (Amine Reactive). RED-PSMA, RED-AR, and RED-CRBN proteins were diluted to a final concentration of 400 nM with PBS-T buffer (0.05% Tween 20), where the fluorescence signals satisfied the typical detection limit of the Monolith NT.115 instrument (NanoTemper Technologies). The binding affinity between Psa-AR and the RED-NHS-labeled AR protein was assessed. […] Then, 10 µL of RED-CRBN was added to each sample to achieve a final concentration of 400 nM. After incubation for 20 min, the samples were loaded into standard/premium-treated capillaries. All the experiments were performed at 22 °C. The data were analyzed by NanoTemper analysis software.

HSP90 = HSP90 degradation in LNCaP cells; format: cell-based; conditions: time-dependent evaluation
Experimental: (§1) The pretreated cells were resuspended in lysis buffer containing 50 mM Tris-HCl (pH 8.0), 150 mM NaCl, 1% (v/v) Triton X-100, and protease inhibitors. The protein concentration was determined via a BCA kit (Applygen). Each sample ([…]) was subjected to SDS‒PAGE and then transferred to a PVDF membrane. The blots were blocked in 5% (wt/v) blocking buffer. After washing three times with TBST buffer (10 mM TBS solution containing 0.1% (v/v) Tween-20), the blots were incubated with primary antibodies at 4 °C on a shaker for 16 h. After washing with TBST buffer three times, the blot was incubated with secondary antibodies at room temperature on a shaker for 2 h. After being washed three times with TBST buffer, the blots were subsequently scanned on a Typhoon Trio Variable Mode Imager.

AR-V7 = test: Western blot AR-V7 degradation in 22Rv1 cells; format: cell-based; conditions: 22Rv1, 20 μM, 48 h
Experimental: All uncropped blots are presented in Supplementary Fig. 26. j, k Representative 22Rv1 cell CLSM images of the degradation of AR after incubation with FITC-labeled Psa-AR for 12 h and quantitative analysis, n = 3 per group. Scale bar: 10 μm. l, m Representative 22Rv1 cell CLSM images of the degradation of HSP90 after incubation with FITC-labeled Psa-AR for 12 h and quantitative analysis, n = 3 per group. Scale bar: 10 μm. n AR-V7 expression in 22Rv1 cells after treatment with PBS, P-AR (20 μM), Psa-AR (20 μM) or Psa-AR (20 μM) combined with MG132 (2 μM) for 48 h, as determined by western blotting. β-Actin was used as an internal reference. o Results of apoptosis in 22Rv1 cells treated with PBS, P-AR (20 μM), or Psa-AR (20 μM) for 48 h, as detected by flow cytometry.
as §1, with “After washing with TBST buffer three times, the blot was incubated with secondary antibodies at room temperature on a shaker for 2 h. After being washed three times with TBST buffer, the blots were subsequently scanned on a Typhoon Trio Variable Mode Imager.” left out

[1] = In vivo and ex vivo fluorescence imaging (biodistribution); set-up: species or system BALB/c nude mice; conditions: Cy7-labeled, 30 mg/kg intravenous
Experimental: Fig. 5 In vivo evaluation of Psa-AR enrichment and retention. a Representative immunohistochemical (IHC) staining of PSMA and AR expression in tumor tissues from three patients with prostate cancer before and after androgen deprivation therapy. The expression levels of PSMA and AR were assessed in serial sections at identical locations. Scale bars: 40 μm. b In vivo fluorescence images of 22Rv1 xenograft mice after treatment with Cy7-labeled P-AR and Psa-AR (30 mg/kg in 200 μL of PBS) for 2 h and 24 h. c Biodistribution in the tumors and main organs of 22Rv1 xenograft mice after injection with Cy7-labeled Psa-AR (30 mg/kg in 200 μL of PBS) for 24 h. (H Heart, Li Liver, Sp Spleen, Lu Lung, Ki Kidney, T Tumor). d Quantitative analysis of the fluorescence images in (c), n = 3 per group
BALB/c nude mice (6–8 weeks old, 16–18 g) were housed in a specific-pathogen-free (SPF) environment. All experiments were conducted in accordance with the Guidelines for the Management and Use of Laboratory Animals and were approved by the Animal Research Committee of the National Center for Nanoscience and Technology (NCNST 21-202503-0020). […] For ex vivo fluorescence imaging, 22Rv1 xenograft mice were intravenously injected with Cy7-labeled Psa-AR (30 mg/kg in 200 µL of PBS) and sacrificed 24 h post-injection to excise major organs (heart, liver, spleen, lung, and kidney) and tumors.

In the case of `CC1(C)C(=O)N(c2ccc(C#N)c(C(F)(F)F)c2)C(=S)N1c1ccc(C(=O)NCCCC[C@H](NC(=O)CNc2cccc3c2C(=O)N(C2CCC(=O)NC2=O)C3=O)C(=O)N[C@@H](CS)C(=O)N[C@@H](CCC(N)=O)C(=O)N[C@@H](Cc2ccc(O)cc2)C(=O)N[C@@H](CC(N)=O)C(=O)N[C@@H](CCC(N)=O)C(=O)N[C@@H](Cc2ccc(O)cc2)C(=O)N[C@@H](Cc2ccc(O)cc2)C(=O)N[C@@H](Cc2ccc3ccccc3c2)C(=O)NCCCC[C@H](NC(=O)N[C@@H](CCC(=O)O)C(=O)O)C(=O)O)c(F)c1` (stereo partly drawn) [Psa-AR] (H-[X1]K(X2)CQYNQYY[2Nal]-EuK), the Kd (PSMA protein) is reported as 7.2 nM, the HSP90 degradation rate (HSP90) is reported as 70% and the “greater AR-V7 degradation than P-AR” value (AR-V7) is reported as 66%. The “tumor deposition relative to P-AR” value ([1]; 2 h, 22Rv1 xenograft mice) was 4 fold, the “tumor retention, residual signal at 24 h” value ([1]; 24 h) was 78% and the FTIR amide I peak without PSMA was 1660 cm⁻¹.
